Assay results: patent publication US9493446B2, “Orexin receptor antagonists which are [ortho bi-(hetero-)aryl]-[2-(meta bi-(hetero-)aryl)-pyrrolidin-1-yl]-methanone derivatives” (Actelion Pharmaceuticals Ltd, priority 2012, dated 2016)
Where two headings read alike, the source gives them in different places.

Legend:
[1] = target: orexin-1 (Homo sapiens (Human), UniProt O43613); assay: Intracellular calcium measurement (FLIPR), CHO cells expressing human orexin-1 receptor, 3 nM orexin-A; assay type: cell-based; settings: read-out: IC50 OX1
Description: (§1) In Vitro Assay: Intracellular Calcium Measurements:
(§2) Chinese hamster ovary (CHO) cells expressing the human orexin-1 receptor and the human orexin-2 receptor, respectively, are grown in culture medium (Ham F-12 with L-Glutamine) containing 300 μg/mL G418, 100 U/mL penicillin, 100 μg/mL streptomycin and 10% heat inactivated fetal calf serum (FCS). The cells are seeded at 20,000 cells/well into 384-well black clear bottom sterile plates (Greiner). The seeded plates are incubated overnight at 37° C. in 5% CO2.
(§3) Human orexin-A as an agonist is prepared as 1 mM stock solution in MeOH: water (1:1), diluted in HBSS containing 0.1% bovine serum albumin (BSA), NaHCO3: 0.375 g/L and 20 mM HEPES for use in the assay at a final concentration of 3 nM.
(§4) Antagonists are prepared as 10 mM stock solution in DMSO, then diluted in 384-well plates using DMSO followed by a transfer of the dilutions into in HBSS containing 0.1% bovine serum albumin (BSA), NaHCO3: 0.375 g/L and 20 mM HEPES. On the day of the assay, 50 μL of staining buffer (HBSS containing 1% FCS, 20 mM HEPES, NaHCO3: 0.375 g/L, 5 mM probenecid (Sigma) and 3 μM of the fluorescent calcium indicator fluo-4 AM (1 mM stock solution in DMSO, containing 10% pluronic) is added to each well. The 384-well cell-plates are incubated for 50 min at 37° C. in 5% CO2 followed by equilibration at rt for 30 min before measurement.
(§5) Within the Fluorescent Imaging Plate Reader (FLIPR Tetra, Molecular Devices), antagonists are added to the plate in a volume of 10 μL/well, incubated for 120 min and finally 10 μL/well of agonist is added. Fluorescence is measured for each well at 1 second intervals, and the height of each fluorescence peak is compared to the height of the fluorescence peak induced by 3 nM orexin-A with vehicle in place of antagonist. […] Optimized conditions were achieved by adjustment of pipetting speed and cell splitting regime. The calculated IC50 values may fluctuate depending on the daily cellular assay performance. Fluctuations of this kind are known to those skilled in the art.

[2] = target: human orexin-2 receptor (Homo sapiens (Human), UniProt O43614); assay: Intracellular calcium measurement (FLIPR), CHO cells expressing human orexin-2 receptor, 3 nM orexin-A; assay type: cell-based; settings: CHO cells expressing human orexin-2 receptor, FLIPR, 3 nM orexin-A; geometric mean if determined several times; read-out: IC50 OX2
Description: as §1, §2, §3, §4, §5

[3] = CHO cells expressing human orexin-1 receptor, FLIPR, 3 nM orexin-A, geometric mean if determined several times

Sequence of human orexin-2 receptor (O43614 whole entry): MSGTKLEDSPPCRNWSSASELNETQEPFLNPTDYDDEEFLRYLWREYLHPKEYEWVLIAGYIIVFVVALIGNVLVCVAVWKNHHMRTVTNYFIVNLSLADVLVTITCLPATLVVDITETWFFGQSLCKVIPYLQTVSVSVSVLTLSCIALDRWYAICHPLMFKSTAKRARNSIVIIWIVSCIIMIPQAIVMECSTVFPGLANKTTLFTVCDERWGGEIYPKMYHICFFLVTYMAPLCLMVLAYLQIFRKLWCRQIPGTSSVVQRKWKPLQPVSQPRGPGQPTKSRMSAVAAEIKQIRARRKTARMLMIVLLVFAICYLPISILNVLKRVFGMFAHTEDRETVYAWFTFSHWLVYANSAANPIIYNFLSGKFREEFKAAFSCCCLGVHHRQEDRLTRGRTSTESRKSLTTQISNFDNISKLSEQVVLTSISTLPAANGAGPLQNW
Sequence of orexin-1 (O43613 whole entry): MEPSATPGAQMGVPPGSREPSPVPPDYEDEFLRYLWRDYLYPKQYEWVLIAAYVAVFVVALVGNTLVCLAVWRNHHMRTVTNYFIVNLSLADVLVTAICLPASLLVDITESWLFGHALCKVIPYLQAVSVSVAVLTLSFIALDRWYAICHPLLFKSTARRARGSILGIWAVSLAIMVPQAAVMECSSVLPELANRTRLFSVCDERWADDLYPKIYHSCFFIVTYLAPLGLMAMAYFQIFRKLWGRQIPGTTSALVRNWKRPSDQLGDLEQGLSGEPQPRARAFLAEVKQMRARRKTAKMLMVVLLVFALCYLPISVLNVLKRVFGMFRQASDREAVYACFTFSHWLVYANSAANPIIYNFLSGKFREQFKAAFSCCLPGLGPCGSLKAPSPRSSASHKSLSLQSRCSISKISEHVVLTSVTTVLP

IC50 [1, 3] [nM]	IC50 [2] [nM]	Molecule	IC50 [1] [nM]
204	89	Cc1ccc(-n2nccn2)c(C(=O)N2CCC[C@H]2c2noc(-c3n[nH]c4ccccc34)n2)c1 [compound 312, {(S)-2-[5-(1H-Indazol-3-yl)-[1,2,4]oxadiazol-3-yl]-pyrrolidin-1-yl}-(5-methyl-2-[1,2,3]triazol-2-yl-phenyl)-methanone]	
26	9	CCOc1ccccc1-c1noc([C@@H]2CCCN2C(=O)c2cc(OC)ccc2-n2nccn2)n1 [compound 261, {(S)-2-[3-(2-Ethoxy-phenyl)-[1,2,4]oxadiazol-5-yl]-pyrrolidin-1-yl}-(5-methoxy-2-[1,2,3]triazol-2-yl-phenyl)-methanone]	
31	15	Cc1ccc(C(=O)N2CCC[C@H]2c2nc(-c3ccccc3OC(F)(F)F)no2)c(-n2nccn2)c1 [compound 147, (4-Methyl-2-[1,2,3]triazol-2-yl-phenyl)-{(S)-2-[3-(2-trifluoromethoxy-phenyl)-[1,2,4]oxadiazol-5-yl]-pyrrolidin-1-yl}-methanone]	
80	292	Cc1ccc(-n2nccn2)c(C(=O)N2CCC[C@H]2c2cc(-c3cccnc3OC(C)C)no2)c1 [compound 427, {(S)-2-[3-(2-Isopropoxy-pyridin-3-yl)-isoxazol-5-yl]-pyrrolidin-1-yl}-(5-methyl-2-[1,2,3]triazol-2-yl-phenyl)-methanone]	
152	4	Cc1ccc(-n2nccn2)c(C(=O)N2CCC[C@H]2c2cc(-c3cccc(C)c3C)no2)c1 [compound 422, {(S)-2-[3-(2,3-Dimethyl-phenyl)-isoxazol-5-yl]-pyrrolidin-1-yl}-(5-methyl-2-[1,2,3]triazol-2-yl-phenyl)-methanone]	
3470	302	Cc1ccc(-n2nccn2)c(C(=O)N2CCC[C@H]2c2nc(-c3ncccc3C)no2)c1 [compound 83, {(S)-2-[3-(3-Methyl-pyridin-2-yl)-[1,2,4]oxadiazol-5-yl]-pyrrolidin-1-yl}-(5-methyl-2-[1,2,3]triazol-2-yl-phenyl)-methanone]	
2910	259	Cc1ccc(-n2nccn2)c(C(=O)N2CCC[C@H]2c2nc(-c3ccccc3O)no2)c1 [compound 31, {(S)-2-[3-(2-Hydroxy-phenyl)-[1,2,4]oxadiazol-5-yl]-pyrrolidin-1-yl}-(5-methyl-2-[1,2,3]triazol-2-yl-phenyl)-methanone]	
42	7	Cc1ccc(-n2nccn2)c(C(=O)N2CCC[C@H]2c2noc(-c3cccc(Cl)c3C)n2)c1 [Example 318, {(S)-2-[5-(3-Chloro-2-methyl-phenyl)-[1,2,4]oxadiazol-3-yl]-pyrrolidin-1-yl}-(5-methyl-2-[1,2,3]triazol-2-yl-phenyl)-methanone]	
1800	1410	Cc1ccc(-n2nccn2)c(C(=O)N2CCC[C@H]2c2nnc(-c3ccccc3)o2)c1 [compound 439, (5-Methyl-2-[1,2,3]triazol-2-yl-phenyl)-[(S)-2-(5-phenyl-[1,3,4]oxadiazol-2-yl)-pyrrolidin-1-yl]-methanone]	
	1	CCOc1c(F)cccc1-c1nc([C@@H]2CCCN2C(=O)c2cc(C)c(C)cc2-n2nccn2)no1 [compound 324, (4,5-Dimethyl-2-[1,2,3]triazol-2-yl-phenyl)-{(S)-2-[5-(2-ethoxy-3-fluoro-phenyl)-[1,2,4]oxadiazol-3-yl]-pyrrolidin-1-yl}-methanone]	
	0.4	COc1c(F)cccc1-c1nc([C@@H]2CCCN2C(=O)c2cc(C)c(C)cc2-n2nccn2)no1 [compound 340, (4,5-Dimethyl-2-[1,2,3]triazol-2-yl-phenyl)-{(S)-2-[5-(3-fluoro-2-methoxy-phenyl)-[1,2,4]oxadiazol-3-yl]-pyrrolidin-1-yl}-methanone]	

The next lines start with the molecule.

Molecule	IC50 [1, 3] [nM]	IC50 [2] [nM]	IC50 [1] [nM]
Cc1ccc(C(=O)N2CCC[C@@]2(C)c2nnc(-c3ccccc3OC(F)(F)F)[nH]2)c(-c2ccccc2)c1 [compound 548, (5-Methyl-biphenyl-2-yl)-{(S)-2-methyl-2-[5-(2-trifluoromethoxy-phenyl)-4H-[1,2,4]triazol-3-yl]-pyrrolidin-1-yl}-methanone]	35	65	
O=C(c1ccoc1)N1CCC[C@H]1c1nc(-c2cccc(Cl)c2)no1 [Ref 5]	> 8500	> 10000	
O=C(c1cccc(F)c1-n1cccn1)N1CCC[C@H]1c1nc(-c2ccccc2OC(F)(F)F)no1 [compound 164, (3-Fluoro-2-pyrazol-1-yl-phenyl)-{(S)-2-[3-(2-trifluoromethoxy-phenyl)-[1,2,4]oxadiazol-5-yl]-pyrrolidin-1-yl}-methanone]	333	171	
Cc1cc(-n2nccn2)c(C(=O)N2CCC[C@H]2c2noc(-c3ccccc3OC(F)(F)F)n2)cc1Cl [compound 365]	13	6	
Cc1cccc(-n2nccn2)c1C(=O)N1CCC[C@H]1c1nc(-c2ccccc2OC(F)(F)F)no1 [compound 149, (2-Methyl-6-[1,2,3]triazol-2-yl-phenyl)-{(S)-2-[3-(2-trifluoromethoxy-phenyl)-[1,2,4]oxadiazol-5-yl]-pyrrolidin-1-yl}-methanone]	184	85	
Cc1cc(C(=O)N2CCC[C@H]2c2noc(-c3cccc(Cl)c3C)n2)c(-n2nccn2)cc1C [compound 321]		1	7
COc1ccccc1-c1noc([C@@H]2CCCN2C(=O)c2nc(C)ccc2-n2nccn2)n1 [compound 235, {(S)-2-[3-(2-Methoxy-phenyl)-[1,2,4]oxadiazol-5-yl]-pyrrolidin-1-yl}-(6-methyl-3-[1,2,3]triazol-2-yl-pyridin-2-yl)-methanone]	361	992	
COc1cc(C(=O)N2CCC[C@H]2c2nnc(-c3cccc(Cl)c3OC)[nH]2)c(-n2nccn2)cc1C [compound 490, {(S)-2-[5-(3-Chloro-2-methoxy-phenyl)-4H-[1,2,4]triazol-3-yl]-pyrrolidin-1-yl}-(5-methoxy-4-methyl-2-[1,2,3]triazol-2-yl-phenyl)-methanone]	120	2	
COc1cc(C(=O)N2CCC[C@H]2c2nc(-c3cccc(Cl)c3C)no2)c(-n2nccn2)cc1F [compound 130]	188	16	
Cc1ccc(-n2nccn2)c(C(=O)N2CCC[C@H]2c2nnc(-c3ccccc3OC(F)(F)F)[nH]2)c1 [compound 465, (5-Methyl-2-[1,2,3]triazol-2-yl-phenyl)-{(S)-2-[5-(2-trifluoromethoxy-phenyl)-4H-[1,2,4]triazol-3-yl]-pyrrolidin-1-yl}-methanone]	76	10	
Cc1c(Cl)cccc1-c1noc([C@@H]2CCCN2C(=O)c2ccc(C(F)(F)F)cc2-n2nccn2)n1 [compound 122]		221	933
CCOc1ccccc1-c1noc([C@@H]2CCCN2C(=O)c2cccc(F)c2-c2ccn[nH]2)n1 [compound 254, {(S)-2-[3-(2-Ethoxy-phenyl)-[1,2,4]oxadiazol-5-yl]-pyrrolidin-1-yl}-[3-fluoro-2-(2H-pyrazol-3-yl)-phenyl]-methanone]	69	20	
O=C(c1ncoc1-c1ccccc1)N1CCC[C@H]1c1nnc(-c2ccccc2OC(F)(F)F)[nH]1 [compound 484, (5-Phenyl-oxazol-4-yl)-{(S)-2-[5-(2-trifluoromethoxy-phenyl)-4H-[1,2,4]triazol-3-yl]-pyrrolidin-1-yl}-methanone]	5020	3000	
Cc1c(Cl)cccc1-c1noc([C@@H]2CCCN2C(=O)c2cc(F)ccc2-c2ccn[nH]2)n1 [compound 116]	457	34	
COc1c(Cl)cccc1-c1nc([C@@H]2CCCN2C(=O)c2ccc(C)cc2-n2nccn2)no1 [compound 354]	12	5	
Cc1ccc(C(=O)N2CCC[C@H]2c2cnc(-c3ccccc3)[nH]2)c(-n2nccn2)c1 [compound 520, (4-Methyl-2-[1,2,3]triazol-2-yl-phenyl)-[(S)-2-(2-phenyl-3H-imidazol-4-yl)-pyrrolidin-1-yl]-methanone]	650		
CCOc1ncccc1-c1nc([C@@H]2CCCN2C(=O)c2cc(Cl)c(C)cc2-n2nccn2)no1 [compound 380]		1	
{(S)-2-[3-(3-Chloro-2-methyl-phenyl)-[1,2,4]oxadiazol-5-yl]-pyrrolidin-1-yl}-[3-(2-chloro-phenyl)-5-methyl-isoxazol-4-yl]-methanone [Reference compound 7, reference compound]		37	
